Marks after values point to notes of the source that are not given here.
What was measured:
[1] = test system: dextran sodium sulfate (DSS)-induced colitis; experiment: DSS-induced colitis in C57BL/6J (wt) and PPAR γ flfl; CD4 Cre+ mice; assay type: in vivo
Protocol: Eight to twelve week old C57BL/6J (n=16) and PPAR γ flfl; CD4 cre+(n=20) mice were housed at the animal facilities at Virginia Polytechnic Institute and State University in a room maintained at 75° F., with a 12:12 h light-dark cycle starting from 6:00 AM. All experimental procedures were approved by the Institutional Animal Care and Use Committee of Virginia Polytechnic Institute and State University and met or exceeded requirements of the Public Health Service/National Institutes of Health and the Animal Welfare Act. C57BL/6J mice were fed AIN-93G-based diets with or without 100 mg/kg of a racemic ABA mixture for 35 days prior to induction of colitis with water containing 2.5% dextran sodium sulfate (DSS), 36,000-44,000 mol wt (ICN Biomedicals, Aurora, Ohio). After the DSS challenge mice were weighed on a daily basis and examined for clinical signs of disease associated with colitis (i.e., perianal soiling, rectal bleeding, diarrhea, and piloerection). For the DSS challenge, the disease activity indices and rectal bleeding scores were calculated using a modification of a previously published compounded clinical score (50). […] Spleen and mesenteric lymph nodes (MLN) were scored based on size and macroscopic inflammatory lesions (0-3), excised, and then crushed to produce single-cell suspensions for flow cytometry.

[2] = test system: CD8+ T cells; experiment: CFSE flow cytometry proliferation assay, Concanavalin A-stimulated splenocytes, CD8+ T cells; assay type: cell-based, mice; details: 100 mg ABA/kg diet; first 4 generations
Protocol: Single cell suspensions were prepared from the spleen by gently crushing the spleens excised during the necropsy procedure between the frosted ends of microscope glass slides previously autoclaved. Tissue debris were removed by settling, erythrocytes were eliminated by hypotonic lysis and cells finally resuspended in complete RPMI (cRPMI, 10% fetal bovine serum (Hyclone, Logan, Utah), 25 mM HEPES buffer (Sigma, St. Louis, Mo.), 100 units/ml penicillin (Sigma), […] streptomycin (Sigma), 1 mM sodium pyruvate (Sigma), 1 mM nonessential aminoacids (Sigma), and 2 mM essential amino acids (Mediatech), and enumerated with a Coulter Z1 Single Particle Counter (Beckman Coulter, Miami, Fla.). […]
Splenocytes at 10^6 cells/ml were seeded in 96-well, round-bottom microtiter plates and incubated incomplete RPMI with or without Concanavalin A (Sigma) at 2.5 μg/ml. […] Following 2 washes in Fluorescence activated cell sorting (FACS) buffer, cells were incubated with streptavidin-PeCy5 (Pharmingen, San Diego, Calif.) for the biotinylated anti-mouse CD4 antibody. Cells were analyzed by 3-color flow cytometry (CFSE, phycoerythrin and PeCy5) in a FACScalibur instrument (Becton Dickinson). Ten thousand events were acquired, and data were analyzed using the Cell Quest Pro™ software (Becton Dickinson). Proliferation was assessed by the decrease in fluorescent intensity of CFSE staining. […]

[3] = test system: lymphocytes derived from the spleen; experiment: Anti-CD3-induced proliferation of spleen-derived lymphocytes; assay type: cell-based; details: ABA-fed mice (controls 30.12)
[4] = test system: adipose tissue macrophages (ATM); experiment: Flow cytometry of adipose tissue macrophage subsets in stromal-vascular fraction of WAT, db/db mice; assay type: in vivo
[5] = Body weight, organ weights and feed intake of db/db mice; assay type: in vivo
Protocol: Experiment 1: mice (n=25) were fed high-fat (>40% energy from fat), isocaloric, isonitrogenous diets containing 0, 100, 200, 400, and 800 mg of a racemic (±) ABA mixture/kg diet for 36 days (Table 1) (Sigma). These doses were chosen based on the standard concentrations of TZDs utilized in the treatment of NIDDM. The mice were weighed and their food intake was recorded daily. On day 36 of the study fasted mice (12 h) were bled through the caudal vein and fasting blood glucose concentrations were determined. To investigate the ability of ABA to normalize glucose concentrations, an intraperitoneal glucose tolerance test (IPGTT) was performed on day 36 on the fasted mice. Briefly, mice were bled at 0, 10, 25, and 45 minutes following the administration of glucose (2 g/kg) for measurement of plasma glucose levels. […] Weights were recorded for WAT, interscapular brown adipose tissue (BAT), and liver.
Experiment 2: The ABA dose utilized (100 mg ABA/kg) was based on the results obtained from the IPGTT of the ABA titration study (i.e., Experiment 1). Mice in experiment 2 were fed high-fat diets containing 0 or 100 mg ABA/kg for 36 days. Their body weights and food intake was recorded daily, and blood was collected on day 36 of the study during an IPGTT. This IPGTT included one additional 100 minutes time point. […] Weights were recorded for abdominal WAT, BAT, and liver.

[6] = test system: db/db mice; experiment: WAT and skeletal muscle (SM) inflammation in db/db mice (Example 8); assay type: in vivo
Protocol: WAT Digestion. […] The floating portion (adipocyte-rich portion), was then removed and digested for an addition 60 minutes at 37° C.
Quantitative real-time reverse transcriptase PCR.
Complementary DNA (cDNA) concentrations for genes of interest were examined by real-time quantitative PCR using an iCycler IQ System and the iQ SYBR green supermix (BioRad). A standard curve was generated for each gene using 10-fold dilutions of purified amplicons starting at 5 pg of cDNA and used later to calculate the starting amount of target cDNA in the unknowns.

Structure (SMILES): CC1=CC(=O)CC(C)(C)C1(O)/C=C/C(C)=C\C(=O)O (racemic) [ABA, abscisic acid]
- improvements in disease activity and inflammation ([1]; CD4cre mice lacking PPAR γ in CD4+ T cells): not present in the CD4cre mice
- disease activity and macroscopic inflammation ([1]; wild-type (wt) mice): significantly reduced disease activity and macroscopically observable inflammation
- CD8+ T cells RPI1 [2]: 5.261*
- stimulation index, anti-CD3-induced proliferation [3]: 8.55
- F4/80hi CD11b+CCR2+ ATM subset ([4]; P=0.006): reduction
- F4/80lo ATM ([4]; db/db mice): no effect
- F4/80hi macrophage infiltration into WAT ([4]; db/db mice, P=0.05): significantly suppressed
- amount of F4/80 on surface of F4/80hi macrophages (MFI) ([4]; vs control diet): significantly lower
- final body weight less than control mice ([5]; 41.34 g vs 43.54 g, not statistically significant): approximately 2.2 grams
- Total feed intake ([5]; between treatment groups): did not differ significantly
- Final body weight ([5]; db/db mice, 100 mg ABA/kg diet, day 36): no significant differences in body weights
- MCP-1 expression in SM ([6]; ABA-fed mice): significantly downregulated
- MCP-1 expression in stromal vascular cells (SVCs) ([6]; ABA-fed mice): significantly downregulated
- TNF-α expression in SM, control-fed db/db versus ABA-fed db/db mice ([6]; P=0.03): approximately 2 fold
- IMAT adipocyte hypertrophy ([6]; db/db mice, 100 mg ABA/kg diet, 36 days): significantly attenuated
- CCR2 and CCR5 macrophage infiltration into WAT ([6]; dietary ABA-supplementation, 36 days): significantly decreased

Source: US8367727B2, “Method of using abscisic acid to treat diseases and disorders” (priority 2006, dated 2013)
